Source: patent publication US6344478B2, “Use of cloprostenol and fluprostenol analogues to treat glaucoma and ocular hypertension” (Alcon Manufacturing, Ltd., priority 1993, dated 2002)

Legend:
[1] = test system: pupil diameter of cats; experiment: Cat pupil diameter response (pupillary constriction in the cat); assay type: in vivo; conditions: for ED5 (equivalent response dose, from Area1-5 of pupil diameter versus time curve): area under pupil diameter vs time curve 1-5 hours, estimated from dose response relationship
Protocol: PGF2α analogues are known to contract the iris sphincter of cats and this assay is a generally accepted reference for activity.
Compounds of the present invention were therefore screened for pupillary constriction in the cat. The response is quantitated as Area1-5 values (area under the pupil diameter versus time curve from 1-5 hours), and the equivalent response dose (ED5) is estimated from its dose response relationship.

[2] = test system: microvascular optic nerve head (ONH) blood flow; experiment: Optic nerve head blood flow after one-week topical treatment in the rabbit (Laser Doppler flowmeter); assay type: in vivo, Dutch-Belted rabbits
Protocol: (§1) Purpose: A two-way crossover study design was used to compare the effects of Compound 1B (0.004%), topically applied, and dosing vehicle on microvascular optic nerve head blood flow, blood pressure, heart rate, and acid-base balance in fifteen acepromazine-tranquilized Dutch-Belted rabbits. Methods: Baseline measurements were taken before treatment and after drug-free washout periods of 14 days. Microvascular optic nerve head (ONH) blood flow was measured with a fundus camera-based Laser Doppler flowmeter (LDf). Thirty microliters o a 0.004% solution of Compound 1B or vehicle was administered in left eyes only q.d. for 7 days. Experimental measurements were made 2 hours after the topical dose was administered on day 8. A sterile 23 gauge intracatheter was inserted into the central ear artery to monitor blood pressure and to take blood samples for blood pH/gas analysis.

[3] = Systemic blood pressure, heart rate and blood pH/gas analysis in the rabbit ONH blood flow study; assay type: in vivo, Dutch-Belted rabbits; conditions: 0.004% topical q.d. 7 days
Protocol: as §1

[4] = test system: IOP in cynomolgus monkey eyes; experiment: Monkey IOP response in lasered (ocular hypertensive) cynomolgus monkey eyes; assay type: in vivo; conditions: lasered right eyes of cynomolgus monkeys; five-dose regimen; estimated from dose response relationship
Protocol: In the study presented below, compound 6 (Table 2, above) was tested for IOP-lowering effect in cynomolgus monkey eyes.
The right eyes of the cynomolgus monkeys used in this study were previously given laser trabeculoplasty to induce ocular hypertension in the lasered eye. Animals had been trained to sit in restraint chairs and conditioned to accept experimental procedures without chemical restraint. IOP was determined with a pneumatonometer after light corneal anesthesia with dilute proparacaine. The test protocol included a five-dose treatment regimen because of the typical delayed response to prostaglandins. The designated test formulations were administered to the lasered right eyes, and the normal left eyes remained untreated, although IOP measurements were taken. Baseline IOP values were determined prior to treatment with the test formulation, and then IOP was determined from 1 to 7 hours after the first dose, 16 hours after the fourth dose, and 1 to 4 hours after the fifth dose.
The equivalent response dose (ED20) is estimated from the dose response relationship to be the dose producing a 20% peak reduction in IOP.

## CC(C)OC(=O)CCC/C=C\C[C@@H]1[C@@H](/C=C/[C@@H](O)COc2cccc(Cl)c2)[C@H](O)C[C@@H]1O [Compound 1A, Cloprostenol, isopropyl ester]
[1]
  ED5 (equivalent response dose, from Area1-5 of pupil diameter versus time curve): 0.01 µg

## CC(C)OC(=O)CCC/C=C\C[C@H]1C(O)CC(O)[C@@H]1/C=C/C(O)COc1cccc(C(F)(F)F)c1 (stereo partly shown) [Compound 1B, Fluprostenol, isopropyl ester]
[2]; 0.004% solution, 30 microliters topical q.d. 7 days, measured 2 hours after dose on day 8, acepromazine-tranquilized rabbits
  ONH blood flow, mean±SEM percent increase from baseline: 13.4±3.9%
[2]; 0.004% topical q.d., p<0.05
  ONH blood flow compared to the vehicle treated group: significantly increased
[3]
  changes in systemic blood pressure, heart rate, blood gas tensions and pH compared with the vehicle group: small non-significant changes
  mean percent decrease in arterial pCO2 tension: 2.59±2.5%
  mean percent decrease in arterial pO2 tension: 1.44±2.03%
  mean percent decrease in systemic arterial pH: 0.07±0.09%

## CC(C)OC(=O)CCC/C=C\CC1C(CC[C@@H](O)COc2cccc(C(F)(F)F)c2)[C@H](O)C[C@@H]1O (stereo partly drawn) [Compound 6, (5Z)-(9S, 11R, 15R)-17,18,19,20-Tetranor-16-(3-trifluoromethylphenoxy)-9,11,15-trihydroxy-5-prostenoic Acid Isopropyl Ester]
[1]
  ED5 (equivalent response dose, from Area1-5 of pupil diameter versus time curve): 0.2 µg
[4]
  ED20 (dose producing a 20% peak reduction in IOP): 0.3 µg

## CC(C)(C)C(=O)OCCCC/C=C\C[C@@H]1[C@@H](CC[C@@H](O)COc2cccc(Cl)c2)[C@H](O)C[C@@H]1O [Compound 8, (5Z)-(9S, 11R, 15R)-16-(3-Chlorophenoxy)-17,18,19,20-tetranor-9,11,15-trihydroxy-5-prostenol Pivaloate]
[1]
  ED5 (equivalent response dose, from Area1-5 of pupil diameter versus time curve): 0.06 µg
[1]; versus PGF2α isopropyl ester and cloprostenol isopropyl ester
  potency in cat pupil diameter response compared with the standard compounds: nearly equivalent potency

## CCCCC[C@H](O)/C=C/[C@@H]1[C@@H](C/C=C\CCCC(=O)OC(C)C)[C@@H](O)C[C@H]1O [PGF2α Isopropyl Ester, reference compound]
[1]
  ED5 (equivalent response dose, from Area1-5 of pupil diameter versus time curve): 0.02 µg
[4]
  ED20 (dose producing a 20% peak reduction in IOP): 0.4 µg
